One may read the Ki as the equilibrium dissociation constant of an inhibitor or competing ligand from its target.

Sequence of Cathepsin S (P25774 115-331, species assumed): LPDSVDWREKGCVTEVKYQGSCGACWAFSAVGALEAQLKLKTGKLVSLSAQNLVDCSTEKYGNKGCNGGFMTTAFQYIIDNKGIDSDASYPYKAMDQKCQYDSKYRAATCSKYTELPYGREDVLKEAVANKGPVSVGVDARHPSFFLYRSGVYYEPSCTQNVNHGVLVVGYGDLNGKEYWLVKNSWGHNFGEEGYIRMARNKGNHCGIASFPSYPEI

The experiment addresses Cathepsin S (Homo sapiens, UniProt P25774). Briefly: Cathepsin S inhibition, fluorogenic peptide substrate kinetic assay. Type of experiment: biochemical. Conditions: Table II; Cathepsin S inhibition constant, pH5.5; read-out: Ki Cat. S. The gist of the method: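 Ki values derive from apparent constants fitted to progress curves, corrected for competition with substrate via [S] and Km. Kinetics were monitored at 380 nm excitation/450 nm emission, after substrate addition (Ac-HPVK-ACC, 50 μM final) to start the reaction.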
Consider `C[C@@H](CNc1ccc(OC(F)(F)F)cc1)NC(=O)[C@H](CC1CCCCC1)NC(=O)[C@@H]1CCCO1` [Compound 29, Tetrahydrofuran-2-(S)-carboxylic acid {2-cyclohexyl-1-(S)-[1-(S)-methyl-2-(4-trifluoromethoxy-phenylamino)-ethylcarbamoyl]-ethyl}-amide], for which the Ki was less than 100 nM. The result for `Cn1cnc(S(=O)(=O)N[C@@H](CC2CCCCC2)C(=O)NCCN2CCc3cc(F)ccc32)c1` [Compound 255, (S)-3-Cyclohexyl-N-[2-(5-fluoro-2,3-dihydro-indol-1-yl)-ethyl]-2-(1-methyl-1H-imidazole-4-sulfonylamino)-propionamide] reads less than 1000 nM. Then `O=C(N[C@@H](CC1CCCCC1)C(=O)N[C@@H](CO)CN1CCc2cc(F)ccc21)c1ccc(-c2cccc(C(F)(F)F)c2)o1` [Compound 153, 5-(3-Trifluoromethyl-phenyl)-furan-2-carboxylic acid {2-cyclohexyl-1-(S)-[2-(5-fluoro-2,3-dihydro-indol-1-yl)-1-(R)-hydroxymethyl-ethylcarbamoyl]-ethyl}-amide], with less than 100 nM. Then `CC[C@@H](C(=O)N[C@@H](CC1CCCCC1)C(=O)NCCN1CCc2cc(F)ccc21)c1ccccc1` [Compound 148, N-{2-cyclohexyl-1-(S)-[2-(5-fluoro-2,3-dihydro-indol-1-yl)-ethylcarbamoyl]-ethyl}-2-(R)-phenyl-butyramide], with less than 100 nM.

In the case of `C[C@@H](CNc1ccc(OC(F)(F)F)cc1)NC(=O)[C@H](CC1CCCCC1)NC(=O)c1nnc(-c2cccc(F)c2)o1` [Compound 147, 5-(3-Fluoro-phenyl)-[1,3,4]oxadiazole-2-carboxylic acid {2-cyclohexyl-1-(S)-[1-(S)-methyl-2-(4-trifluoromethoxy-phenylamino)-ethylcarbamoyl]-ethyl}-amide], the Ki is less than 100 nM. As for `C[C@@H](CNc1ccccc1S(C)(=O)=O)NC(=O)[C@H](CC1CCCCC1)NC(=O)c1ccc(-c2cccc(F)c2)o1` [Compound 116, 5-(3-Fluoro-phenyl)-furan-2-carboxylic acid {2-cyclohexyl-1-(S)-[2-(2-methanesulfonyl-phenylamino)-1-(S)-methyl-ethylcarbamoyl]-ethyl}-amide], the Ki is less than 100 nM.

Take `Cc1cccc(C(=O)N[C@@H](Cc2ccccc2)C(=O)NC(C)(C)CN2CCc3cc(F)ccc32)c1` [Compound 28, N-{(1S)-[2-(5-Fluoro-2,3-dihydro-indol-1-yl)-1,1-dimethyl-ethylcarbamoyl]-2-phenyl-ethyl}-3-methyl-benzamide]: the Ki is less than 10000 nM. Then `C[C@@H](CNc1ccc(OCc2ccccc2)cc1)NC(=O)[C@H](CC1CCCCC1)NC(=O)c1ccc(-c2cccc(F)c2)o1` [Compound 266, 5-(3-Fluoro-phenyl)-furan-2-carboxylic acid {1-(S)-[2-(4-benzyloxy-phenylamino)-1-(S)-methyl-ethylcarbamoyl]-2-cyclohexyl-ethyl}-amide], with less than 100 nM; and `O=C(N[C@@H](CC1CCCCC1)C(=O)NCCN1CCc2cc(F)ccc21)C1CC(=O)N(Cc2cccs2)C1` (stereo partly drawn) [Compound 73, 5-Oxo-1-thiophen-2-ylmethyl-pyrrolidine-3-carboxylic acid (S)-{2-cyclohexyl-1-[2-(5-fluoro-2,3-dihydro-indol-1-yl)-ethylcarbamoyl]-ethyl}-amide], with less than 100 nM; and `O=C(N[C@@H](CC1CCCCC1)C(=O)NCCN1CCc2cc(F)ccc21)C1CCN(S(=O)(=O)c2ccc(Cl)cc2)CC1` [Compound 17, 1-(4-Chloro-benzenesulfonyl)-piperidine-4-carboxylic acid (S)-{2-cyclohexyl-1-[2-(5-fluoro-2,3-dihydro-indol-1-yl)-ethylcarbamoyl]-ethyl}-amide], with less than 1000 nM. On to `C[C@@H](CNc1ccc(OC(F)(F)F)cc1)NC(=O)[C@H](CC1CCCCC1)NC(=O)c1ccc(-c2cccc(F)c2)o1` [Compound 83, 5-(3-Fluoro-phenyl)-furan-2-carboxylic acid {2-cyclohexyl-1-(S)-[1-(S)-methyl-2-(4-trifluoromethoxy-phenylamino)-ethylcarbamoyl]-ethyl}-amide], for which the Ki is less than 100 nM.

The values are drawn from patent US20040248887A1, “Inhibitors of cathepsin S” (IRM LLC, priority 2003, published 2004).
